47 compounds from patent publication US20050124497A1, “Delta1-pyrrolines and their use as pest control agents” (priority 2002, published 2005) can be followed below.

The subject of data set [1] is Meloidogyne incognita egg/larvae suspension. Put plainly: Meloidogyne test. It is filed as in vivo. Conditions: 20 ppm active compound, lettuce in sand, nematicidal action by gall formation. The protocol: To produce a suitable preparation of active compound, 1 part by weight of active compound is mixed with the stated amounts of solvent and emulsifier, and the concentrate is diluted with water to the desired concentration.
Containers are filled with sand, solution of active compound, Meloidogyne incognita egg/larvae suspension and lettuce seeds. The lettuce seeds germinate and the plants develop. On the roots, galls are formed.
After the desired period of time, the nematicidal action is determined in % by gall formation. 100% means that no galls were found; 0% means that the number of galls on the treated plants corresponds to that of the untreated control.

In data set [2] the test system is caterpillars of the armyworm (Spodoptera frugiperda). Kind of data set: Spodoptera frugiperda test. Type of data set: in vivo. Conditions: 168 h, read-out: Efficacy in % after 7 d; for pest or weed control at 100 ppm: 100 ppm active compound. The protocol: Spodoptera Frugiperda Test
(§1) To produce a suitable preparation of active compound, 1 part by weight of active compound is mixed with the stated amounts of solvent and emulsifier, and the concentrate is diluted with emulsifier-containing water to the desired concentration.
Cabbage leaves (Brassica oleracea) are treated by being dipped into the preparation of active compound of the desired concentration and are populated with caterpillars of the armyworm (Spodoptera frugiperda) while the leaves are still moist.
(§2) After the desired period of time, the kill in % is determined. 100% means that all caterpillars have been killed; 0% means that none of the caterpillars have been killed.

Data set [3] deals with greenhouse red spider mite (Tetranychus urticae). Kind of data set: Tetranychus test (OP-resistant/dip treatment). Type of data set: in vivo. Conditions: 168 h, 100 ppm active compound, bean plants dipped, all stages, after 7 d, read-out: Efficacy in % after 7 d. The protocol: Tetranychus Test (OP-Resistant/Dip Treatment)
as §1
Bean plants (Phaseolus vulgaris) which are heavily infested by all stages of the greenhouse red spider mite (Tetranychus urticae) are treated by being dipped into a preparation of active compound of the desired, concentration.
After the desired period of time, the effect in % is determined. 100% means that all spider mites have been killed; 0% means that none of the spider mites have been killed.

The nature of data set [4]: log P by HPLC (reversed-phase C18), acidic range pH 2.3. Type of data set: physicochemical. The following applies: reversed-phase C18 HPLC column; pH 2.3, 0.1% aqueous phosphoric acid/acetonitrile, 43° C. The protocol: The log P values given in the Tables and Preparation Examples above are determined in accordance with EEC Directive 79/831 Annex V.A8 by HPLC (High Performance Liquid Chromatography) using a reversed-phase column (C 18). Temperature: 43° C.
The determination in the acidic range is carried out at pH 2.3 using the mobile phases 0.1% aqueous phosphoric acid and acetonitrile; linear gradient from 10% acetonitrile to 90% acetonitrile. In the Tables, the values are marked a).
Calibration is carried out using unbranched alkan-2-ones (of 3 to 16 carbon atoms) with known log P values (determination of the log P values by retention times using linear interpolation between two successive alkanones).

Data set [5] relates to Heliothis armigera caterpillars. Put plainly: Heliothis armigera test. The following applies: 100 ppm active compound, soya bean shoots dipped, kill after 7 d. Type of data set: in vivo. The protocol:
Solvent: 7 parts by weight of dimethylformamide
Emulsifier: 2 parts by weight of alkylaryl polyglycol ether
as §1
Soya bean shoots (Glycine max) are treated by being dipped into the preparation of active compound of the desired concentration and are populated with Heliothis armigera caterpillars while the leaves are still moist.
as §2

For data set [6], the system named is larvae of the mustard beetle (Phaedon cochleariae). Put plainly: Phaedon larvae test. Type of data set: in vivo. The following applies: cabbage leaves dipped, kill after 7 d. How it is done: Phaedon Larvae Test [table] To produce a suitable preparation of active compound, 1 part by weight of active compound is mixed with the stated amounts of solvent and emulsifier, and the concentrate is diluted with emulsifier-containing water to the desired concentration. Cabbage leaves (Brassica oleracea) are treated by being dipped into the preparation of active compound of the desired concentration and are populated with larvae of the mustard beetle (Phaedon cochleariae) while the leaves are still moist.

[7] abbreviates: cabbage leaves dipped, kill after 7 d.
[8] abbreviates: 500 ppm active compound, cabbage leaves dipped, kill after 7 d.

Like-named read-outs stand apart in the source and are kept apart here.

Regarding `Cc1cc2oc(-c3ccc(C4CCC(c5c(F)cccc5F)=N4)cc3)nc2c(C)c1Cl` (centres unmarked), the “Efficacy in % after 7 d” value in data set [1] is given as 98%. Consider `CNS(=O)(=O)c1cc2oc(-c3ccc(C4CCC(c5c(F)cccc5F)=N4)cc3)nc2cc1Cl` (centres unmarked), for which the “Efficacy in % after 7 d” value in data set [1] is listed as 80%. Turning to `O=[N+]([O-])c1cc2oc(-c3ccc(C4CCC(c5c(F)cccc5F)=N4)cc3)nc2cc1Cl` (centres unmarked), the pest or weed control at 500 ppm in data set [2] (in Brassica oleracea) came out at 100%.

As for `Fc1cccc(F)c1C1=NC(c2ccc(-c3nc4cc(Cl)ccc4o3)cc2)CC1` (centres unmarked), the pest or weed control at 100 ppm in data set [2] (setting [7]) came out at 100%. For `Cc1ccccc1C1=NC(c2ccc(-c3nc4ccccc4o3)cc2)CC1` (centres unmarked), in data set [2] (setting [7]), the pest or weed control at 100 ppm was 100%. As to `Fc1cccc(F)c1C1=NC(c2ccc(-c3nc4cc(Cl)cc(Cl)c4o3)cc2)CC1` (centres unmarked), the pest or weed control at 100 ppm in data set [2] (setting [7]) stood at 100%.

As to `Fc1cc(-c2nc3ccccc3o2)ccc1C1CCC(c2c(F)cccc2F)=N1` (centres unmarked), in data set [3], the pest or weed control at 100 ppm was determined as 95%. For `Fc1cccc(F)c1C1=NC(c2ccc(-c3nc4cc(C(F)(F)F)cc(Cl)c4o3)cc2)CC1` (centres unmarked), in data set [3], the pest or weed control at 100 ppm was 95%. For `Fc1cccc(F)c1C1=NC(c2ccc(-c3nc4cc(C(F)(F)F)cc(C(F)(F)F)c4o3)cc2)CC1` (centres unmarked), the pest or weed control at 100 ppm in data set [3] was 100%. `CC(C)(C)c1ccc2oc(-c3ccc(C4CCC(c5c(F)cccc5F)=N4)cc3)nc2c1` (centres unmarked) [Example 1, 5-tert-butyl-2-{4-[5-(2,6-difluorophenyl)-3,4-dihydro-2H-pyrrol-2-yl]phenyl}-1,3-benzoxazole] yielded a chromatographic logP in data set [4] of 5.11.

`Fc1cccc(F)c1C1=NC(c2ccc(-c3nc4cc(SC(F)(F)F)ccc4o3)cc2)CC1` (centres unmarked) [Example 2] gave a chromatographic logP in data set [4] of 4.98. On to `Fc1cccc(F)c1C1=NC(c2ccc(-c3nc4ccccc4o3)cc2)CC1` (centres unmarked) [Example 3, 2-{4-[5-(2,6-difluorophenyl)-3,4-dihydro-2H-pyrrol-2-yl]phenyl}-1,3-benzoxazole], for which the chromatographic logP in data set [4] turned out to be 3.22. The compound `Fc1cccc(F)c1C1=NC(c2ccc(-c3nc4ncccc4o3)cc2)CC1` (centres unmarked) [Example 4, 2-{4-[5-(2,6-difluorophenyl)-3,4-dihydro-2H-pyrrol-2-yl]-phenyl}[1,3]oxazole[4,5-b]pyridine] came in with a chromatographic logP in data set [4] of 2.06. Same read-out and setting: with `Fc1ccc2nc(-c3ccc(C4CCC(c5c(F)cccc5F)=N4)cc3)oc2c1` (centres unmarked) [Example 5, 2-{4-[5-(2,6-difluorophenyl)-3,4-dihydro-2H-pyrrol-2-yl]phenyl}-6-fluoro-1,3-benzoxazole] the figure was 3.53; with `CC(C)(C)c1ccc(O)c(NC(=O)c2ccc(C3CCC(c4c(F)cccc4F)=N3)cc2)c1` (centres unmarked) [II-1, N-(5-tert-btyl-2-hydroxyphenyl)-4-[5-(2,6-difluorohenyl)-3,4-dihydro-2H-pyrrol-2-yl]benzamide], 3.22; with `O=C(Nc1ncccc1O)c1ccc(C2CCC(c3c(F)cccc3F)=N2)cc1` (centres unmarked) [II-4, 4-[5-(2,6-difluorophenyl)-3,4-dihydro-2H-pyrrol-2-yl]-N-(3-hydroxy-2-pyridinyl)benzamide], 1.16. Take `Fc1cccc(F)c1C1=NC(c2ccc(-c3nc4cc(C(F)(F)F)c(Cl)cc4o3)cc2)CC1` (centres unmarked) [drawing 27]: in data set [5], the “Efficacy in % after 7 d” value is recorded as 100%.

For the compound `Fc1cccc(F)c1C1=NC(c2ccc(-c3nc4cc(OC(F)(F)F)ccc4o3)cc2)CC1` (centres unmarked) [drawing 28], the “Efficacy in % after 7 d” value in data set [5] worked out at 100%.

For `Fc1cccc(F)c1C1=NC(c2ccc(-c3nc4cc(-c5ccccc5)ccc4o3)cc2)CC1` (centres unmarked) [drawing 29], the “Efficacy in % after 7 d” value in data set [5] stood at 100%. On to `Fc1cc(-c2nc3cc(OC(F)(F)F)ccc3o2)ccc1C1CCC(c2c(F)cccc2F)=N1` (centres unmarked) [drawing 30], for which the “Efficacy in % after 7 d” value in data set [5] is 100%. Consider `Fc1cc(-c2nc3cc(Cl)ccc3o2)ccc1C1CCC(c2c(F)cccc2F)=N1` (centres unmarked) [drawing 31], for which the “Efficacy in % after 7 d” value in data set [5] is given as 100%. Turning to `Fc1cccc(F)c1C1=NC(c2ccc(-c3nc4cc(C(F)(F)F)ccc4s3)cc2)CC1` (centres unmarked) [drawing 32], the “Efficacy in % after 7 d” value in data set [5] was found to be 100%.

Consider `Fc1cccc(F)c1C1=NC(c2ccc(-c3nc4cc(Br)ccc4o3)cc2)CC1` (centres unmarked) [drawing 33], for which the “Efficacy in % after 7 d” value in data set [5] stood at 100%. For `O=C(Nc1ncccc1O)c1ccc(C2CCC(c3c(F)cccc3F)=N2)cc1` (centres unmarked) [drawing 34], the “Efficacy in % after 7 d” value in data set [1] was determined as 95%. Consider `Fc1cccc(F)c1C1=NC(c2ccc(-c3nc4ccccc4s3)cc2)CC1` (centres unmarked) [drawing 35], for which the “Efficacy in % after 7 d” value in data set [1] stood at 80%.

Take `CC(C)(C)c1ccc2oc(-c3ccc(C4CCC(c5c(F)cccc5F)=N4)cc3)nc2c1` (centres unmarked) [drawing 39]: the “Efficacy in % after 7 d” value in data set [6] (500 ppm active compound) came to 100%. As for `Fc1cccc(F)c1C1=NC(c2ccc(-c3nc4cc(SC(F)(F)F)ccc4o3)cc2)CC1` (centres unmarked) [drawing 40], the “Efficacy in % after 7 d” value in data set [6] (500 ppm active compound) was found to be 100%.

Turning to `Fc1cccc(F)c1C1=NC(c2ccc(-c3nc4cc(C(F)(F)F)c(Cl)cc4o3)cc2)CC1` (centres unmarked) [drawing 41], the “Efficacy in % after 7 d” value in data set [6] (100 ppm active compound) is recorded as 100%. Turning to `Fc1cccc(F)c1C1=NC(c2ccc(-c3nc4cc(OC(F)(F)F)ccc4o3)cc2)CC1` (centres unmarked) [drawing 42], the “Efficacy in % after 7 d” value in data set [6] (100 ppm active compound) is listed as 100%. As to `Fc1cccc(F)c1C1=NC(c2ccc(-c3nc4cc(-c5ccccc5)ccc4o3)cc2)CC1` (centres unmarked) [drawing 43], in data set [6] (100 ppm active compound), the “Efficacy in % after 7 d” value was found to be 100%.

Consider `Fc1cc(-c2nc3cc(OC(F)(F)F)ccc3o2)ccc1C1CCC(c2c(F)cccc2F)=N1` (centres unmarked) [drawing 44], for which the “Efficacy in % after 7 d” value in data set [6] (100 ppm active compound) worked out at 100%. For the compound `Fc1cc(-c2nc3cc(-c4ccccc4)ccc3o2)ccc1C1CCC(c2c(F)cccc2F)=N1` (centres unmarked) [drawing 45], the “Efficacy in % after 7 d” value in data set [6] (100 ppm active compound) was 100%. Take `Fc1cccc(F)c1C1=NC(c2ccc(-c3nc4ccccc4o3)cc2)CC1` (centres unmarked) [drawing 48]: in data set [2] (in Brassica oleracea), the pest or weed control at 500 ppm is 100%. As for `Fc1cccc(F)c1C1=NC(c2ccc(-c3nc4ncccc4o3)cc2)CC1` (centres unmarked) [drawing 49], the pest or weed control at 500 ppm in data set [2] (setting [8]) came out at 100%. On to `CC(C)(C)c1ccc2oc(-c3ccc(C4CCC(c5c(F)cccc5F)=N4)cc3)nc2c1` (centres unmarked) [drawing 50], for which the pest or weed control at 500 ppm in data set [2] (setting [8]) was determined as 100%. With `Fc1cccc(F)c1C1=NC(c2ccc(-c3nc4cc(SC(F)(F)F)ccc4o3)cc2)CC1` (centres unmarked) [drawing 52], the pest or weed control at 500 ppm in data set [2] (setting [8]) came to 100%. `Fc1ccc2nc(-c3ccc(C4CCC(c5c(F)cccc5F)=N4)cc3)oc2c1` (centres unmarked) [drawing 54]: the pest or weed control at 500 ppm in data set [2] (setting [8]) worked out at 100%. Consider `CC(C)(C)c1ccc(O)c(NC(=O)c2ccc(C3CCC(c4c(F)cccc4F)=N3)cc2)c1` (centres unmarked) [drawing 55], for which the pest or weed control at 500 ppm in data set [2] (setting [8]) is 100%.

Consider `CN(C)S(=O)(=O)c1cc2oc(-c3ccc(C4CCC(c5c(F)cccc5F)=N4)cc3)nc2cc1Cl` (centres unmarked) [drawing 58], for which the pest or weed control at 100 ppm in data set [2] (setting [7]) turned out to be 100%.

As for `Fc1cc(-c2nc3cc(Cl)ccc3o2)ccc1C1CCC(c2c(F)cccc2F)=N1` (centres unmarked) [drawing 59], the pest or weed control at 100 ppm in data set [2] (setting [7]) stood at 100%. Take `Fc1cccc(F)c1C1=NC(c2ccc(-c3nc4cc(C(F)(F)F)ccc4s3)cc2)CC1` (centres unmarked) [drawing 60]: the pest or weed control at 100 ppm in data set [2] (setting [7]) came to 100%.

Take `Fc1cccc(F)c1C1=NC(c2ccc(-c3nc4cc(C(F)(F)F)c(Cl)cc4o3)cc2)CC1` (centres unmarked) [drawing 63]: the pest or weed control at 100 ppm in data set [3] came out at 98%. `CN(C)S(=O)(=O)c1cc2oc(-c3ccc(C4CCC(c5c(F)cccc5F)=N4)cc3)nc2cc1Cl` (centres unmarked) [drawing 64]: in data set [3], the pest or weed control at 100 ppm came out at 90%. As to `Fc1cccc(F)c1C1=NC(c2ccc(-c3nc4ccccc4s3)cc2)CC1` (centres unmarked) [drawing 65], the pest or weed control at 100 ppm in data set [3] was 99%.

Regarding `Fc1cc(-c2nc3cc(Cl)ccc3o2)ccc1C1CCC(c2c(F)cccc2F)=N1` (centres unmarked) [drawing 67], the pest or weed control at 100 ppm in data set [3] turned out to be 95%. Take `Fc1cc(-c2nc3cc(-c4ccccc4)ccc3o2)ccc1C1CCC(c2c(F)cccc2F)=N1` (centres unmarked) [drawing 68]: the pest or weed control at 100 ppm in data set [3] came out at 99%. For `Fc1cccc(F)c1C1=NC(c2ccc(-c3nc4cc(C(F)(F)F)ccc4s3)cc2)CC1` (centres unmarked) [drawing 69], the pest or weed control at 100 ppm in data set [3] came out at 90%.
